This is an account of results in patent publication US7378446B2, “Compound having anti-HCV activity and process for producing the same” (Chugai Seiyaku Kabushiki Kaisha, priority 2003, dated 2008).

The nature of series [1]: in vitro. The conditions noted are these: human; replicon cells, 3 days culture with compound, Cell Counting Kit 8, absorbance 450 nm; read-out: Cytotoxicity CC50. It is filed as cell-based. On the procedure: (§1) A construct was prepared in which a luciferase gene derived from firefly was introduced as a reporter gene in HCV-RNA to assay the number of copies of HCV-RNA. The luciferase gene was introduced in the form of fusing with neomycin-resistance gene directly below the IRES (Internal Ribosome Entry Site) of the HCV gene in accordance with the method of Krieger, et al. (J. Virol. 75:4614). After synthesizing this RNA in vitro, it was introduced into Huh7 cell by electroporation and isolated as G418-resistant clone. Firefly luciferase HCV replicon cells (3-1) were suspended in Dulbecco's MEM (Gibco cat. no. 10569-010) containing 5% fetal bovine serum (Hyclone cat. no. SH30071.03), inoculated into the wells of a 96-well plate at 5000 cells/well and then cultured overnight at 37° C. and 5% CO2. Approximately 20 hours later, the diluted test compound was added at 10 μl per well followed by culturing for another 3 days. Two series of assay plates were prepared, and the assay was carried out using a white plate for one series and a clear plate for the other series. Following completion of culturing, the white plate was used for the Steady-Glo Luciferase Assay System (Promega cat. no. E2520). Namely, after adding 100 μl of reagent per well, mixing by a pipette 3 to 4 times and then allowing to stand for 5 minutes, luminescence was measured with the 1450 MicroBeta TRILUX (Wallac). Values obtained in the absence of cell addition were used as background values and subtracted from all values to calculate the IC50 (50% inhibitory concentration) of the drug based on a value of 0% inhibition for the value in the absence of addition of test compound.
The Cell Counting Kit 8 (Dojindo cat. no. CK04) was used to determine the cytotoxicity. Namely, 10 μl of Cell Counting Kit 8 were added to a clear plate and incubated for 30 to 60 minutes at 37° C. Absorbance at a wavelength of 450 nm and a control wavelength of 630 nm was measured with a 96-well plate reader. Values in the absence of cell addition were used as background values and subtracted from all values to calculate the CC50 (50% cell inhibitory concentration) of the drug based on a value of 0% inhibition for the value in the absence of addition of drug.
(A replicon is a self-replicating genome or part of one, used to study replication in cells.)

Series [2] has as its system Firefly luciferase HCV replicon cells (3-1). Nature of the series: Replicon assay (firefly luciferase HCV replicon). The note with it: Hepatitis C virus, 72 h; Huh7-derived luciferase HCV replicon cells, 3 days culture with compound, Steady-Glo luminescence. It is filed as cell-based. On the procedure:
as §1

In the case of `CCCCCCCC(=O)CCCCCC/C=C/[C@H](C(=O)N[C@@H](Cc1ccc(Oc2ccccc2)cc1)C(=O)O)[C@@](O)(CC(=O)O)C(=O)O` [Compound 15], the half-maximal cytotoxic concentration (CC50) in series [1] is more than 5000 nM. The half-maximal inhibitory concentration (IC50) in series [2] is 2 nM.
With `CCCCCCCC(=O)CCCCCC/C=C/[C@H](C(=O)N[C@@H](Cc1ccc(C)cc1)C(=O)O)[C@@](O)(CC(=O)O)C(=O)O` [Compound 16], the CC50 in series [1] is more than 5000 nM. Further, the IC50 in series [2] was 10 nM.
In the same order, the values of `CCCCCCCC(=O)CCCCCC/C=C/[C@H](C(=O)N[C@@H](Cc1ccc(OCc2ccccc2)cc1)C(=O)O)[C@@](O)(CC(=O)O)C(=O)O` [Compound 17] are more than 5000 nM and less than 1 nM.
For the compound `CC#CCOc1ccc(C[C@H](NC(=O)[C@@H](/C=C/CCCCCCC(=O)CCCCCCC)[C@@](O)(CC(=O)O)C(=O)O)C(=O)O)cc1` [Compound 18], the CC50 in series [1] is more than 5000 nM. Also, the half-maximal inhibitory concentration (IC50) in series [2] was determined as 1 nM.
On the same counts, the results for `CCCCCCCC(=O)CCCCCC/C=C/[C@H](C(=O)N[C@@H](Cc1ccc(-c2ccccc2)cc1)C(=O)O)[C@@](O)(CC(=O)O)C(=O)O` [Compound 19] are more than 5000 nM and 2 nM.
As to `CCCCCCCC(=O)CCCCCC/C=C/[C@H](C(=O)N[C@@H](Cc1ccc2ccccc2c1)C(=O)O)[C@@](O)(CC(=O)O)C(=O)O` [Compound 20], the CC50 in series [1] was more than 5000 nM. Moreover, the IC50 in series [2] was 7 nM.
Regarding `CCCCCCCC(=O)CCCCCC/C=C/[C@H](C(=O)N[C@@H](Cc1ccc(OC2CCCCC2)cc1)C(=O)O)[C@@](O)(CC(=O)O)C(=O)O` [Compound 21], the CC50 in series [1] is more than 1000 nM. Besides, the IC50 in series [2] turned out to be 4 nM.
Turning to `CCCCCCCC(=O)CCCCCC/C=C/[C@H](C(=O)N[C@@H](Cc1ccc(CCCC(C)C)cc1)C(=O)O)[C@@](O)(CC(=O)O)C(=O)O` [Compound 22], the CC50 in series [1] was more than 1000 nM. Further, the IC50 in series [2] was 14 nM.
In the same order, the values of `CCCCCCCC(=O)CCCCCC/C=C/[C@H](C(=O)N[C@@H](Cc1ccc(OC)c(OC)c1)C(=O)O)[C@@](O)(CC(=O)O)C(=O)O` [Compound 23] are more than 1000 nM and 17 nM.
As to `CCCCCCCC(=O)CCCCCC/C=C/[C@H](C(=O)N[C@@H](Cc1ccc(Oc2ccc(Cl)cc2)cc1)C(=O)O)[C@@](O)(CC(=O)O)C(=O)O` [Compound 24], the CC50 in series [1] is more than 1000 nM. In series [2], the IC50 was determined as 11 nM.
Consider `CCCCCCCC(=O)CCCCCC/C=C/[C@H](C(=O)N[C@@H](Cc1ccc(Oc2ccc(F)cc2)cc1)C(=O)O)[C@@](O)(CC(=O)O)C(=O)O` [Compound 25], for which the CC50 in series [1] was more than 1000 nM. Moreover, the IC50 in series [2] was 9 nM.
In the same order, the values of `CCCCCCCC(=O)CCCCCC/C=C/[C@H](C(=O)N[C@@H](Cc1ccc(CCCCC)cc1)C(=O)O)[C@@](O)(CC(=O)O)C(=O)O` [Compound 26] are more than 1000 nM and 17 nM.
For `CCCCCCCC(=O)CCCCCC/C=C/[C@H](C(=O)N[C@@H](Cc1ccc(-c2cccnc2)cc1)C(=O)O)[C@@](O)(CC(=O)O)C(=O)O` [Compound 27], in series [1], the CC50 is more than 1000 nM. In addition, the IC50 in series [2] was 10 nM.
As for `CCCCCCCC(=O)CCCCCC/C=C/[C@H](C(=O)N[C@@H](Cc1ccc(-c2ccc(Cl)cc2)cc1)C(=O)O)[C@@](O)(CC(=O)O)C(=O)O` [Compound 28], the half-maximal cytotoxic concentration (CC50) in series [1] is more than 1000 nM. In series [2], the IC50 turned out to be 9 nM.
For `CCCCCCCC(=O)CCCCCC/C=C/[C@H](C(=O)N[C@@H](Cc1ccc(-c2ccc(F)cc2)cc1)C(=O)O)[C@@](O)(CC(=O)O)C(=O)O` [Compound 29], the CC50 in series [1] was more than 1000 nM. Besides, the IC50 in series [2] amounted to 6 nM.
On to `CCCCCCCC(=O)CCCCCC/C=C/[C@H](C(=O)N[C@@H](Cc1ccc(-c2ccc(F)cc2F)cc1)C(=O)O)[C@@](O)(CC(=O)O)C(=O)O` [Compound 30], for which the CC50 in series [1] is more than 1000 nM. Further, the IC50 in series [2] is 8 nM.
In the case of `CCCCCCCC(=O)CCCCCC/C=C/[C@H](C(=O)N[C@@H](Cc1ccc(-c2ccsc2)cc1)C(=O)O)[C@@](O)(CC(=O)O)C(=O)O` [Compound 31], the CC50 in series [1] was more than 1000 nM. Also, the IC50 in series [2] was determined as 12 nM.
For the compound `CCCCCCCC(=O)CCCCCC/C=C/[C@H](C(=O)NC(Cc1ccc(C(F)(F)F)cc1)C(=O)O)[C@@](O)(CC(=O)O)C(=O)O` (some centres unmarked) [Compound 32], in series [1], the CC50 was more than 1000 nM. Also, the half-maximal inhibitory concentration (IC50) in series [2] came to 68 nM.
Take `CCCCCCCC(=O)CCCCCC/C=C/[C@H](C(=O)NC(Cc1ccc(C#N)cc1)C(=O)O)[C@@](O)(CC(=O)O)C(=O)O` (some centres unmarked) [Compound 33]: the CC50 in series [1] was more than 1000 nM. In series [2], the IC50 came out at 12 nM.
Regarding `CCCCCCCC(=O)CCCCCC/C=C/[C@H](C(=O)NC(Cc1ccc(Cl)cc1)C(=O)O)[C@@](O)(CC(=O)O)C(=O)O` (some centres unmarked) [Compound 34], the CC50 in series [1] was more than 1000 nM. Also, the half-maximal inhibitory concentration (IC50) in series [2] was found to be 55 nM.
With `CCCCCCCC(=O)CCCCCC/C=C/[C@H](C(=O)NC(Cc1ccc([N+](=O)[O-])cc1)C(=O)O)[C@@](O)(CC(=O)O)C(=O)O` (some centres unmarked) [Compound 35], the CC50 in series [1] was more than 1000 nM. Besides, in series [2], the IC50 was determined as 80 nM.
Take `CCCCCCCC(=O)CCCCCC/C=C/[C@H](C(=O)N[C@@H](Cc1cccs1)C(=O)O)[C@@](O)(CC(=O)O)C(=O)O` [Compound 36]: the CC50 in series [1] was more than 1000 nM. Further, the IC50 in series [2] is 500 nM.
For `CCCCCCCC(=O)CCCCCC/C=C/[C@H](C(=O)N[C@@H](Cc1ccc(C(C)(C)C)cc1)C(=O)O)[C@@](O)(CC(=O)O)C(=O)O` [Compound 37], the CC50 in series [1] is more than 1000 nM. Also, in series [2], the IC50 came out at 210 nM.
As for `CCCCCCCC(=O)CCCCCC/C=C/[C@H](C(=O)N[C@@H](Cc1ccc(-c2cccc(Cl)c2)cc1)C(=O)O)[C@@](O)(CC(=O)O)C(=O)O` [Compound 38], the half-maximal cytotoxic concentration (CC50) in series [1] is more than 1000 nM. Moreover, the IC50 in series [2] was determined as 24 nM.
`CCCCCCCC(=O)CCCCCC/C=C/[C@H](C(=O)N[C@@H](Cc1ccc(Oc2cccc(Cl)c2)cc1)C(=O)O)[C@@](O)(CC(=O)O)C(=O)O` [Compound 39]: the CC50 in series [1] is more than 1000 nM. For the same compound, in series [2], the IC50 worked out at 20 nM.
On to `CCCCCCCC(=O)CCCCCC/C=C/[C@H](C(=O)NC(Cc1ccc(OCCCC)cc1)C(=O)O)[C@@](O)(CC(=O)O)C(=O)O` (some centres unmarked) [Compound 40], for which, in series [1], the CC50 was more than 1000 nM. Besides, in series [2], the IC50 turned out to be 1 nM.
As for `CCCCCCCC(=O)CCCCCC/C=C/[C@H](C(=O)NC(Cc1ccc(OCCC)cc1)C(=O)O)[C@@](O)(CC(=O)O)C(=O)O` (some centres unmarked) [Compound 41], the CC50 in series [1] is more than 1000 nM. For the same compound, in series [2], the IC50 turned out to be 2 nM.
In the same order, the values of `C=CCOc1ccc(CC(NC(=O)[C@@H](/C=C/CCCCCCC(=O)CCCCCCC)[C@@](O)(CC(=O)O)C(=O)O)C(=O)O)cc1` (some centres unmarked) [Compound 42] are more than 1000 nM and 1 nM.
With `CCCCCCCC(=O)CCCCCC/C=C/[C@H](C(=O)NC(Cc1ccc(OC)cc1)C(=O)O)[C@@](O)(CC(=O)O)C(=O)O` (some centres unmarked) [Compound 43], the CC50 in series [1] is more than 1000 nM. Besides, the half-inhibitory concentration (IC50) in series [2] worked out at 3 nM.
With `CCCCCC(=O)CCCCCCCC/C=C/[C@H](C(=O)N[C@@H](Cc1ccc(OCCC(C)C)cc1)C(=O)O)[C@@](O)(CC(=O)O)C(=O)O` [Compound 44], in series [1], the CC50 was more than 1000 nM. Moreover, the IC50 in series [2] worked out at 1 nM.
Turning to `CCCCCCCCCC(=O)CCCC/C=C/[C@H](C(=O)N[C@@H](Cc1ccc(OCCC(C)C)cc1)C(=O)O)[C@@](O)(CC(=O)O)C(=O)O` [Compound 45], in series [1], the CC50 was more than 1000 nM. Also, the IC50 in series [2] is 5 nM.

Broadly, the CC50 is the concentration giving 50% cytotoxicity. What is called IC50 is the concentration at which inhibition is half-maximal.
